The record followed here is patent publication US20190375708A1 (VenatoRx Pharmaceuticals, Inc., priority 2018, published 2019).

pEC50: −log10 of the molar value. A value given as a limit tells only on which side of the number the result lay.

The term CC50 denotes the concentration that lowers cell viability or growth by half. Higher therefore signals lower toxicity to the cells. What is called pEC50 is the EC50 on a negative log10 scale, so that one unit is a factor of ten.

A short description of data set [1]: In vitro cytotoxicity assay (MTT cell viability) in HepG2 cells. It counts as cell-based, human. To be noted: human. In outline: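 CC50 values reflect loss of HepG2 viability after a 7-day exposure at 37 °C, 5% CO2. After 3-4 h with MTT, solubilized formazan was quantified at 492 nm relative to vehicle wells.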
Data set [2] relates to HBV replication in HepAD38 cells. Nature of the data set: Anti-HBV replication assay in HepAD38 cells (QPCR of extracellular HBV DNA). The settings on record: Hepatitis B virus, 168 h, 7 days incubation, extracellular HBV DNA by QPCR, read-out: Anti-HBV EC50. It counts as cell-based, HBV (genotype D, serotype ayw). In a few lines:
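HepAD38 cells (HepG2 carrying a tet-repressible HBV genotype D genome) were seeded in tetracycline-free medium and treated next day with compound […] for 7 days. Supernatant HBV DNA was measured by QPCR against a standard curve; EC50 came from 4-parameter fits of inhibition versus DMSO control.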

Regarding `Cc1cc(NC(=O)c2c(C)c(C(=O)C(=O)NC3(C)CC=CCC3)n(C)c2C)ccc1F` (centres unmarked) [Example 694, N-(4-fluoro-3-methylphenyl)-1,2,4-trimethyl-5-(2-((1-methylcyclohex-3-en-1-yl)amino)-2-oxoacetyl)-1H-pyrrole-3-carboxamide], the CC50 at 7 days in data set [1] is above 30 µM. Moreover, the pEC50 in data set [2] is above 7.30.

Regarding `Cc1cc(NC(=O)c2c(C)c(C(=O)C(=O)NC(C)(C)CO)n(C)c2Cl)ccc1F` [Example 391, 2-chloro-N-(44-fluoro-3-methylphenyl)-5-(2-((1-hydroxy-2-methylpropan-2-yl)amino)-2-oxoacetyl)-1 4-dimethyl-1H-pyrrole-3-carboxamide], the CC50 at 7 days in data set [1] is above 30 µM. Further, in data set [2], the pEC50 was below 6.00.

The compound `Cc1cc(NC(=O)c2c(C)c(C(=O)C(=O)N[C@H]3CC[C@](O)(C(F)(F)F)CC3)n(C)c2C)ccc1F` [Example 221, N-(4-fluoro-3-methylphenyl)-5-(2-(((1s,4s)-4-hydroxy-4-(trifluoromethyl)cyclohexyl)amino)-2-oxoacetyl)-1,2,4-trimethyl-1H-pyrrole-3-carboxamide] gave a CC50 at 7 days in data set [1] of 5 to 30 µM. The pEC50 in data set [2] was above 7.30.

Consider `Cc1cc(NC(=O)c2c(C)c(C(=O)C(=O)NC3COCC(O)C3)n(C)c2C)ccc1F` (centres unmarked) [Example 608, N-(4-fluoro-3-methylphenyl)-5-(2-((5-hydroxytetrahydro-2H-pyran-3-yl)amino)-2-oxoacetyl)-1,2,4-trimethyl-1H-pyrrole-3-carboxamide], for which the CC50 at 7 days in data set [1] is above 30 µM. The pEC50 in data set [2] is above 7.30.

In data set [1], `Cc1noc([C@@H](C)NC(=O)C(=O)c2c(Cl)c(C(=O)Nc3ccc(F)c(F)c3)c3n2CCCC3)n1` [Example 517, (R)-2-chloro-N-(3,4-difluorophenyl)-3-(2-((1-(3-methyl-1,2,4-oxadiazol-5-yl)ethyl)amino)-2-oxoacetyl)-5,6,7,8-tetrahydroindolizine-1-carboxamidde] had a CC50 at 7 days of 5 to 30 µM. The pEC50 in data set [2] is 6.30 to 7.30.

In turn, `Cc1cc(NC(=O)c2c(C)c(C(=O)C(=O)NC3(C(F)(F)F)CCC3)n(C)c2C)ccc1F` [Example 236, N-(4-fluoro-3-methylphenyl)-1,2,4-trimethyl-5-(2-oxo-2-((1-(trifluoromethyl)cyclobutyl)amino)acetyl)-1H-pyrrole-3-carboxamide] yielded a CC50 at 7 days in data set [1] of 5 to 30 µM. In addition, the negative logarithm of the EC50 (pEC50) in data set [2] was above 7.30.

On to `Cc1noc(C2(NC(=O)C(=O)c3c(C)c(C(=O)Nc4ccc(F)c(C)c4)c(C)n3C)CC2)n1` [Example 155, N-(4-fluoro-3-methylphenyl)-1,2,4-trimethyl-5-(2-((1-(3-methyl-1,2,4-oxxadiazol-5-yl)cyclopropyl)amino)-2-oxoacetyl)-1H-pyrrole-3-carboxamide], for which the CC50 at 7 days in data set [1] is above 30 µM. In data set [2], the pEC50 was above 7.30.

As to `Cc1cc(NC(=O)c2c(C)c(C(=O)C(=O)NC3(CN4CCOCC4)CCCCC3)n(C)c2C)ccc1F` [Example 596, N-(4-fluoro-3-methylphenyl)-1,2,4-trimethyl-5-(2-((1-(morpholinomethyl)cyclohexyl)amino)-2-oxoacetyl)-1H-pyrrole-3-carboxamide], the CC50 at 7 days in data set [1] was above 30 µM. In addition, the negative-log EC50 (pEC50) in data set [2] is above 7.30.

In data set [1], `Cc1noc([C@H](C)NC(=O)C(=O)c2c(Cl)c(C(=O)Nc3cnc(F)c(C)c3)c3n2CCC3)n1` [Example 736, (S)-6-chloro-N-(6-luoro-5-methylpyridin-3-yl)-5-(2-((1-(3-methyl-1,2,4-oxadiazol-5-yl)ethyl)amino)-2-oxoacetyl)-2,3-dihydro-1H-pyrrolizine-7-carboxamide] gave a 50% cytotoxic concentration (CC50) at 7 days of 5 to 30 µM. In data set [2], the negative logarithm of the EC50 (pEC50) is above 7.30.

In turn, `Cc1cc(NC(=O)c2c(C)c(C(=O)C(=O)NC(C)(C)CCO)n(C)c2C)ccc1F` [Example 11, N-(4-fluoro-3-methylphenyl)-5-(2-((4-hydroxy-2-methylbutan-2-yl)amino)-2-oxoacetyl)-1,2,4-trimethyl-1H-pyrrole-3-carboxamide] registered a CC50 at 7 days in data set [1] above 30 µM. Further, the negative-log EC50 (pEC50) in data set [2] was above 7.30.

As for `CO[C@H]1CC[C@@H](NC(=O)C(=O)c2c(C)c(C(=O)Nc3ccnc(Cl)c3)c(C)n2C)CC1` [Example 345, N-(2-chloropyridin-4-yl)-5-(2-(((1s,4s)-4-methoxycyclohexyl)amino)-2-oxoacetyl)-1,2,4-trimethyl-1H-pyrrole-3-carboxamide], the CC50 at 7 days in data set [1] is above 30 µM. The negative logarithm of the EC50 (pEC50) in data set [2] is above 7.30.

In data set [1], `Cc1cc(NC(=O)c2c(C)c(C(=O)C(=O)N[C@@H]3CCCN(S(C)(=O)=O)C3)n(C)c2C)ccc1F` [Example 640] came in with a CC50 at 7 days of 5 to 30 µM. Also, the pEC50 in data set [2] was above 7.30.

In turn, `Cc1cc(NC(=O)c2c(C)c(C(=O)C(=O)NC3(CO)CC(F)(F)C3)n(C)c2C)cnc1F` [Example 184, 5-(2-((3,3-difluoro-1-(hydroxymethyl)cyclobutyl)amino)-2-oxoacetyl)-N-(6-fluoro-5-methylpyridin-3-yl)-1,2,4-trimethyl-1H-pyrrole-3-carboxamide] showed a CC50 at 7 days in data set [1] above 30 µM. Besides, in data set [2], the pEC50 is above 7.30.

As for `Cc1cc(NC(=O)c2c(C)c(C(=O)C(=O)N[C@H]3c4ccccc4C[C@H]3O)n(C)c2C)ccc1F` [Example 260, N-(4-fluoro-3-methylphenyl)-5-(2-(((1S,2R)-2-hydroxy-2,3-dihydro-1H-inden-1-yl)amino)-2-oxoacetyl)-1,2,4-trimethyl-1H-pyrrole-3-carboxamide], in data set [1], the CC50 at 7 days is 5 to 30 µM. Besides, the pEC50 in data set [2] was above 7.30.

`Cc1c(C(=O)NC2(C)CCCC2)c2n(c1C(=O)C(=O)NC(C)(C)CO)CCCC2` [Example 753, 3-(2-((1-hydroxy-2-methylpropan-2-yl)amino)-2-oxoacetyl)-2-methyl-N-(1-methylcyclopentyl)-5,6,7,8-tetrahydroindolizine-1-carboamide]: the CC50 at 7 days in data set [1] is above 30 µM. Moreover, the pEC50 in data set [2] is 6.30 to 7.30.

`Cc1cc(NC(=O)c2c(C)c(C(=O)C(=O)NC3(C)CCOCC3)n(C)c2C)ccc1F` [Example 277, N-(4-fluoro-3-methylphenyl)-1,2,4-trimethyl-5-(2-((4-methyltetrahydro-2H-pyran-4-yl)amino)-2-oxoacetyl)-1H-pyrrole-3-carboxamide] registered a CC50 at 7 days in data set [1] above 30 µM. In addition, the pEC50 in data set [2] is above 7.30.

For the compound `Cc1cc(NC(=O)c2c(C)c(C(=O)C(=O)NC3(CN4CCN(c5ccc(Cl)cc5)CC4)CC3)n(C)c2C)ccc1F` [Example 661, 5-(2-((1-((4-(4-chlorophenyl)piperazin-1-yl)methyl)cyclopropyl)amino)-2-oxoacetyl)-N-(4-fluoro-3-methylphenyl)-1,2,4-trimethyl-1H-pyrrole-3-carboxamide], the CC50 at 7 days in data set [1] was in the range of 5 to 30 µM. Also, the pEC50 in data set [2] was above 7.30.

In turn, `Cc1cc(NC(=O)c2c(C)c(C(=O)C(=O)NC(C)c3nn[nH]n3)n(C)c2C)ccc1F` (centres unmarked) [Example 79, 5-(2-((1-(2H-tetrazol-5-yl)ethyl)amino)-2-oxoacetyl)-N-(4-fluoro-3-methylphenyl)-1,2,4-trimethyl-1H-pyrrole-3-carboxamide] had a half-maximal cytotoxic concentration (CC50) at 7 days in data set [1] above 30 µM. Also, the pEC50 in data set [2] was 6.30 to 7.30.

Consider `CO[C@H]1CC[C@@H](NC(=O)C(=O)c2c(C)c(C(=O)Nc3ccc(F)c(C)c3)c(C)n2C)CC1` [Example 268, N-(4-fluoro-3-methylphenyl)-5-(2-(((1s,4s)-4-methoxycyclohexyl)amino)-2-oxoacetyl)-1,2,4-trimethyl-1H-pyrrole-3-carboxamide], for which, in data set [1], the CC50 at 7 days lay in the range of 5 to 30 µM. In data set [2], the pEC50 was above 7.30.

In data set [1], `CC(=O)N[C@H]1C[C@H](NC(=O)C(=O)c2c(C)c(C(=O)Nc3ccc(F)c(C)c3)c(C)n2C)C1` [Example 670, 5-(2-(((1r,3r)-3-acetamidocyclobutyl)amino)-2-oxoacetyl)-N-(4-fluoro-3-methylphenyl)-1,2,4-trimethyl-1H-pyrrole-3-carboxamide] came in with a CC50 at 7 days above 30 µM. Further, the pEC50 in data set [2] is above 7.30.

Take `Cc1cc(NC(=O)c2c(C)c(C(=O)C(=O)N[C@@]3(C)CC[C@H](O)C3)n(C)c2C)ccc1F` [Example 723, N-(4-fluoro-3-methylphenyl)-5-(2-(((1 S,3S)-3-hydroxy-1-methylcyclopentyl)amino)-2-oxoacetyl)-1,2,4-trimethyl-1H-pyrrole-3-carboxamide]: in data set [1], the CC50 at 7 days was above 30 µM. Further, the pEC50 in data set [2] was above 7.30.

As to `Cc1cc(NC(=O)c2c(Cl)c(C(=O)C(=O)NC(C)(C)C)n3c2CCCC3)ccc1F` [Example 489], the CC50 at 7 days in data set [1] was above 30 µM. The pEC50 in data set [2] is above 7.30.

`Cc1cc(NC(=O)c2c(C)c(C(=O)C(=O)N[C@H]3CC[C@H](O)C3)n(CCF)c2C)ccc1F` [Example 194, N-(4-fluoro-3-methylphenyl)-1-(2-fluoroethyl)-5-(2-(((1S,3S)-3-hydroxycyclopentyl)amino)-2-oxoacetyl)-2,4-dimethyl-1H-pyrrole-3-carboxamide] returned a CC50 at 7 days in data set [1] above 30 µM. The pEC50 in data set [2] is 6.30 to 7.30.

`Cc1cc(NC(=O)c2c(C)c(C(=O)C(=O)NC(C)C(F)(F)F)n(C)c2C)ccc1F` (centres unmarked) [Example 10, N-(4-fluoro-3-methylphenyl)-1,2,4-trimethyl-5-(2-oxo-2-((1,1,1-trifluoropropan-2-yl)amino)acetyl)-1H-pyrrole-3-carboxamide] came in with a CC50 at 7 days in data set [1] of 5 to 30 µM. Also, the pEC50 in data set [2] is above 7.30.

As to `CC(=O)N1C[C@@H]2[C@H](C1)[C@H]2NC(=O)C(=O)c1c(C)c(C(=O)Nc2ccc(F)c(C)c2)c(C)n1C` [Example 643, 5-(2-(((1R,5S,6s)-3-acetyl-3-azabicyclo[3.1.0]hexan-6-yl)amino)-2-oxoacetyl)-N-(4-fluoro-3-methylphenyl)-1,2,4-trimethyl-1H-pyrrole-3-carboxamide], the CC50 at 7 days in data set [1] was above 30 µM. For the same compound, in data set [2], the pEC50 is 6.30 to 7.30.
